{"source": "ChEMBL document CHEMBL1125467", "about": "“Structure-activity relationship in the gastric cytoprotective effect of several sesquiterpene lactones” (1992)", "data": [{"test_system": "Rattus norvegicus", "assay": "Cytoprotective effect at an oral dose of 40 mg/kg", "type": "functional", "design": "unit not given here", "values": [{"smiles": "C=C1C(=O)OC2/C=C(\\C)C[C@@H]3C=C(CC(OC(=O)C(C)CC)[C@@H]12)C(=O)O3", "note": "(some centres not stated)", "Cytoprotective effect": 4}, {"smiles": "C=C1C(=O)O[C@@H]2C[C@@H](C)C3=CCC(=O)[C@@]3(C)[C@@H](OC(C)=O)[C@H]12", "Cytoprotective effect": 0.9}, {"smiles": "CC1C(=O)O[C@@H]2[C@H]1CC[C@H](C)[C@@]1(O)C=CC(=O)[C@@]21C", "note": "(some centres not stated)", "Cytoprotective effect": 4}, {"smiles": "C[C@@H]1C[C@H]2OC(=O)[C@H](C)[C@H]2[C@H](O)[C@]2(C)C(=O)C=CC12", "note": "(some centres not stated)", "Cytoprotective effect": 0.66}, {"smiles": "C=C1C(=O)O[C@@H]2C[C@@H](C)C3C=CC(=O)[C@@]3(C)[C@@H](OC(=O)CNC(=O)C(F)(F)F)[C@H]12", "note": "(some centres not stated)", "Cytoprotective effect": 0.95}, {"smiles": "C=C1C(=O)O[C@@H]2C[C@@H](C)C3C=CC(=O)[C@@]3(C)[C@@H](OC(C)=O)[C@H]12", "note": "(some centres not stated)", "Cytoprotective effect": 1}, {"smiles": "C=C1C(=O)O[C@@H]2C[C@@H](C)C3CCC(=O)[C@@]3(C)[C@@H](O)[C@H]12", "note": "(some centres not stated)", "Cytoprotective effect": 1}, {"smiles": "CC1=CC(=O)C2C(C)CC[C@H]3[C@H](C)C(=O)O[C@@H]3[C@]12C", "note": "(some centres not stated)", "Cytoprotective effect": 3.5}, {"smiles": "C=C1C(=O)O[C@@H]2C[C@@H](C)C3C=CC(=O)[C@@]3(C)[C@@H](OC(=O)CN)[C@H]12", "note": "(some centres not stated)", "Cytoprotective effect": 0.85}, {"smiles": "C=C1C(=O)O[C@@H]2[C@H]3C(C)=CC(=O)C3=C(C)CC[C@@H]12", "note": "[DEHYDROLEUCODIN]", "Cytoprotective effect": 0.25}, {"smiles": "C=C1C(=O)O[C@@H]2C[C@@H](C)C3CCC(C)=C3[C@@H](O)[C@H]12", "note": "(some centres not stated) [GUAIANOLIDE]", "Cytoprotective effect": 0.7}, {"smiles": "C=C1C(=O)O[C@@H]2C[C@@H](C)[C@@H]3C=CC(=O)[C@@]3(C)[C@@H](O)[C@H]12", "note": "[HELENALIN]", "Cytoprotective effect": 0.33}, {"smiles": "C=C1C(=O)O[C@@H]2[C@H]1CC[C@H](C)[C@@]1(O)C=CC(=O)[C@@]21C", "note": "[HYMENIN]", "Cytoprotective effect": 0.25}, {"smiles": "C=C1C(=O)O[C@H]2[C@H]1CCC(C)=C1C[C@H]3O[C@@]3(C)[C@@H]12", "note": "[LUDARTIN]", "Cytoprotective effect": 0.5}, {"smiles": "C=C1C(=O)O[C@H]2C[C@@H](C)[C@@H]3C=CC(=O)[C@@]3(C)[C@H](O)[C@H]12", "note": "[MEXICANIN I]", "Cytoprotective effect": 0.25}]}, {"test_system": "Rattus norvegicus", "assay": "Compound was evaluated for the cytoprotective effect at an oral dose of 40 mg/kg in rat", "type": "functional", "values": [{"smiles": "C[C@@H]1C[C@H]2OC(=O)[C@H](C)[C@H]2[C@H](O)[C@]2(C)C(=O)CCC12", "note": "(some centres not stated)", "Cytoprotective effect": 3.7}, {"smiles": "CC1C(=O)O[C@@H]2[C@H]1CC[C@H](C)[C@@]1(O)CCC(=O)[C@@]21C", "note": "(some centres not stated)", "Cytoprotective effect": 4.5}]}]}
